BigSolDB 2.1

N#CN=C(N)N
solubility (mole fraction)
Details | 283.15 K | 288.15 K | 293.15 K | 298.15 K | 303.15 K | 308.15 K | 313.15 K | 318.15 K | 323.15 K
in acetone | 0.00634 | 0.00658 | 0.00677 | 0.00754 | 0.00836 | 0.0102 | 0.0112 | 0.0133 | 0.0154
in acetonitrile | 0.00219 | 0.00226 | 0.00245 | 0.00273 | 0.00296 | 0.00324 | 0.00364 | 0.00447 | 0.00528
in ethanol | 0.00786 | 0.00861 | 0.00936 | 0.0102 | 0.0109 | 0.0125 | 0.0142 | 0.017 | 0.0206
